Measured values as given in US9592225B2, “Crystalline N-[5-(aminosulfonyl)-4-methyl-1,3-thiazol-2-yl]-N-methyl-2-[4-(2-pyridinyl)phenyl]acetamide mono mesylate monohydrate having a specific particle size distribution range and a specific surface area range for use in pharmaceutical formulations” (AICURIS ANTI-INFECTIVE CURES GMBH, priority 2011, dated 2017).

Tests used:
HSV = experiment: Murine HSV skin infection model; type: in vivo; details: oral doses of 5 mg/kg or higher once daily for four days; data not shown
Experimental: To assess the pharmacokinetic/pharmacodynamic profile the effective dose of the free base of N-[5-(aminosulfonyl)-4-methyl-1,3-thiazol-2-yl]-N-methyl-2-[4-(2-pyridinyl)phenyl]-acetamide was validated in a murine HSV skin infection model and associated plasma concentrations were determined (data not shown).
(§1) In healthy male volunteers these plasma concentrations were covered by a single dose of 40 mg as free base equivalent to the crystalline mono mesylate monohydrate salt of N-[5-(aminosulfonyl)-4-methyl-1,3-thiazol-2-yl]-N-methyl-2-[4-(2-pyridinyl)phenyl]acetamide (see FIG. 10) and at steady state by daily doses of 25 mg as free base equivalent (see FIG. 11) for 21 days.

[1] = Safety and tolerability in phase I trials; type: in vivo, human; details: healthy male volunteers, single and multiple dose, up to the highest dose tested
Experimental: The results were compared with the effective concentration of the free base of N-[5-(aminosulfonyl)-4-methyl-1,3-thiazol-2-yl]-N-methyl-2-[4-(2-pyridinyl)phenyl]acetamide in cell culture and correlated to exposures reached in healthy male volunteers in single and multiple dose phase I trials (see FIGS. 9-13).
as §1

[2] = Single-dose escalation and pharmacokinetics in human volunteers; type: in vivo
From the text: Exposure of the free base form of N-[5-(aminosulfonyl)-4-methyl-1,3-thiazol-2-yl]-N-methyl-2-[4-(2-pyridinyl)-phenyl]acetamide to the human body may be measured by high pressure liquid chromatography (HPLC) by looking at different pharmacokinetic parameters in suitable bodily fluids such as for instance blood plasma and urine, the most common parameters being the Cmax, the so-called area under the curve (AUC), and the terminal half-life (t1/2Z). Hereto, the person skilled in the art understands that said parameters are determined by using adequate bioanalytical methods with adequate sensitivity, specificity, ruggedness, stability and repeatability, as for instance a qualified liquid chromatography triple quad mass spectrometry based method coupled with a suitable extraction method for the separation of the analyte from, e.g. the blood plasma.
Therefore, pharmacokinetic studies in human subjects were undertaken following both single and multiple dose administrations of the crystalline mono mesylate monohydrate salt of N-[5-(aminosulfonyl)-4-methyl-1,3-thiazol-2-yl]-N-methyl-2-[4-(2-pyridinyl)phenyl]-acetamide, wherein the particle size distribution is preferably defined by d(0.1) from 2 to 100 μm, d(0.5) from 30 to 210 μm and d(0.9) from 70 to 400 μm with a specific surface area of the particles less than 1.0 m^2/g, and more preferably defined by d(0.1) from 10 to 75 μm, d(0.5) from 100 to 175 μm, d(0.9) from 200 to 350 μm with a specific surface area of the particles less than 0.3 m^2/g.
Single oral doses of the crystalline mono mesylate monohydrate salt of N-[5-(aminosulfonyl)4methyl1,3thiazol-2-yl]-N-methyl-2-[4-(2-pyridinyl)phenyl]acetamide using the formulations according to example 2, Table 2, were administered to six volunteers per dose step. The overall shape of the plasma concentrations vs. time profiles were similar across all doses (see FIG. 9 and FIG. 12). […]
AUC0-∞: Area under the analyte vs. time concentration from time of administration up to infinity, calculated as
[formula] wherein A0-last is defined as the area under the analyte vs. time concentration up to time of the last qualifiable concentration, calculated by linear up/log down summation and Clast is defined as last quantifiable observed analyte concentration. λz is the apparent terminal elimination rate constant, determined by linear regression of terminal points of In-linear analyte concentration-time curve.
Cmax is the maximal observed analyte concentration and tmax is the time to reach Cmax; t1/2z is defined as the apparent terminal elimination half-life, calculated as
MRT: Mean Residence Time; calculated AUMC divided by AUC, wherein AUMC is the area under the first moment of the concentration-time curve from zero up to ∞ with extrapolation of the terminal phase and AUC is the area under the concentration-time curve from zero up to ∞ with extrapolation of the terminal phase. […]

[3] = Multiple-dose escalation and steady-state pharmacokinetics in healthy volunteers; type: in vivo, human; details: for AUGτ: day 21 steady state, n=12
From the text: For the three doses of the mono mesylate monohydrate salt of N-[5-(aminosulfonyl)-4-methyl-1,3-thiazol-2-yl]-N-methyl-2-[4-(2-pyridinyl)phenyl]acetamide in formulation according to example 1, Table 2, wherein the particle size distribution is preferably defined by d(0.1) from 2 to 100 μm, d(0.5) from 30 to 210 μm and d(0.9) from 70 to 400 μm with a specific surface area of the particles less than 1.0 m^2/g, and more preferably defined by d(0.1) from 10 to 75 μm, d(0.5) from 100 to 175 μm, d(0.9) from 200 to 350 μm with a specific surface area of the particles less than 0.3 m^2/g, investigated (5, 25, and 100 mg as free base equivalent; once per day oral administration, […]), the individual concentration-time curves of the free base N-[5-(aminosulfonyl)-4-methyl-1,3-thiazol-2-yl]Nmethyl-2-[4-(2-pyridinyl)phenyl]acetamide at day 1 (after the first administration) were very similar in their general shape and slope to those profiles obtained in the single dose escalation trial (see Example 6).
At steady state, there was a low inter-individual variability of minimal or “trough” concentrations with CVs (coefficient of variations) between 16.7 and 21.7% (day 21). For all doses, the individual and mean concentration-time curves of the free base of N-[5-(aminosulfonyl)-4-methyl-1,3-thiazol-2-yl]-N-methyl-2-[4-(2-pyridinyl)phenyl]acet-amide at day 21 were very similar in their shape and slope to those profiles obtained at day 1.
Table 10: Steady state pharmacokinetic parameters of the free base N-[5-(aminosulfonyl)-4-methyl-1,3-thiazol-2-yl]-N-methyl-2-[4-(2-pyridinyl)phenyl]acetamide at day 21 after daily administrations of 5, 25, or 100 mg as free base equivalent of the mono mesylate monohydrate salt of N-[5-(aminosulfonyl)-4-methyl-1,3-thiazol-2-yl]-N-methyl-2-[4-(2-pyridinyl)phenyl]acetamide in formulation according to example 2, Table 2, wherein the particle size distribution is preferably defined by d(0.1) from 2 to 100 μm, d(0.5) from 30 to 210 μm and d(0.9) from 70 to 400 μm with a specific surface area of the particles less than 1.0 m^2/g, and more preferably defined by d(0.1) from 10 to 75 μm, d(0.5) from 100 to 175 μm, d(0.9) from 200 to 350 μm with a specific surface area of the particles less than 0.3 m^2/g, to healthy volunteers (n=12 per dose).

Thermostability = type: physicochemical; details: compared to the mesylate salt
From the text: A clear advantage of the N-[5-(aminosulfonyl)-4-methyl-1,3-thiazol-2-yl]-N-methyl-2-[4-(2-pyridinyl)phenyl]acetamide mono mesylate monohydrate, wherein the PSD, PSR and SSA are as defined herein, is its proven long-term stability. Therefore, the inventive N-[5-(aminosulfonyl)-4-methyl-1,3-thiazol-2-yl]-N-methyl-2-[4-(2-pyridinyl)-phenyl]acetamide mono mesylate monohydrate, which is characterized by the PSD, PSR and SSA as disclosed herein, is better suited for the preparation of long-term stable tablets compared to the free base form of N-[5-(aminosulfonyl)-4-methyl-1,3-thiazol-2-yl]-N-methyl-2-[4-(2-pyridinyl)phenyl]acetamide.

## Cc1nc(N(C)C(=O)Cc2ccc(-c3ccccn3)cc2)sc1S(N)(=O)=O [free base, N-[5-(aminosulfonyl)-4-methyl-1,3-thiazol-2-yl]-N-methyl-2-[4-(2-pyridinyl)phenyl]acetamide]
HSV
  suppression of murine HSV skin infection: completely suppressed the murine infection
[1]
  safety and tolerability: safe and well tolerated

## CS(=O)(=O)O.Cc1nc(N(C)C(=O)Cc2ccc(-c3ccccn3)cc2)sc1S(N)(=O)=O [mono mesylate monohydrate, N-[5-(aminosulfonyl)-4-methyl-1,3-thiazol-2-yl]-N-methyl-2-[4-(2-pyridinyl)-phenyl]acetamide mono methanesulfonic acid monohydrate]
[2]; single dose of 80 mg as free base equivalent, after normalization to body weight
  gender-related difference in exposure: No clinical relevant gender-related difference
[2]; single doses from 5 mg to 400 mg as free base equivalent
  relation of maximum plasma concentrations to dose: linearly related to doses
[2]; single doses from 5 mg to 480 mg as free base equivalent
  relation of AUC0-∞ to dose: dose-proportional increase
[2]; single oral dose 480 mg as free base equivalent
  mean maximum blood plasma concentration (mean Cmax) of the free base: 6921 ± 2190 ng/mL
[2]; single oral dose 600 mg free base equivalent, mean, n=6
  AUC0-∞: 320800 ng·h/mL
[3]; human, 5 mg free base equivalent once daily oral
  AUGτ: 5094 ng·h/mL
[3]; human, 25 mg free base equivalent once daily oral
  AUGτ: 23430 ng·h/mL
[3]; human, 100 mg free base equivalent once daily oral
  AUGτ: 108800 ng·h/mL
[3]; human, 5, 25, 100 mg once daily
  relation of steady-state exposure (Ctrough, AUCτ, Cmax,ss, Cav) to dose: dose-proportional increase
[3]; human, 5, 25, 100 mg, after the first administration
  relation of AUC0-24 h and Cmax at day 1 to dose: dose-proportional increases
[3]; human, all doses applied (5, 25, 100 mg once daily)
  accumulation ratio R for both AUC and Cmax: ~5
Thermostability
  thermostability: up to 170 °C
